Among the data in PubChem BioAssay (NCI) are TGI values, retold here.

The structures appear in SMILES notation. Several values for one entry are separate records, joined by “and”; a condition that tells them apart may be missing. Equal values may be shown once.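 Five concentrations, 48 hours, 96-well plates. TGI denotes the concentration required for complete inhibition of growth.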

Among the test systems are COLO 205 colon; HCT-116 colon; HOP-92 NSCLC; IGROV1 ovarian; MDA-N; NCI-H522 lung; SNB-75 CNS; SR leukemia; TK-10 renal; UO-31 renal.
Common to all, as to assay: inhibition of tumour cell growth, NCI panel, 48 h

In the case of `CCOC(=O)C(=Cn1c(=S)[nH]c2ccc([N+](=O)[O-])cc21)C(=O)OCC`, the TGI in the experiment on COLO 205 colon, with HCT-116 colon, in the experiment on HOP-92 NSCLC, with IGROV1 ovarian, in the experiment on MDA-N and in the experiment on NCI-H522 lung was above 100 µM each time. Further, the TGI in the experiment on SNB-75 CNS, in the experiment with SR leukemia, with TK-10 renal and in the experiment on UO-31 renal was above 100 µM throughout.
Regarding `COc1cc(-c2nc3nc(N4CCN(C)CC4)ccc3[nH]2)c(OC)c2[nH]c(COC(C)=O)nc12`, the TGI was above 100 µM with COLO 205 colon; 58.6 µM with HCT-116 colon; above 100 µM in the experiment on HOP-92 NSCLC; above 100 µM in the experiment with IGROV1 ovarian; above 100 µM in the experiment with MDA-N; above 100 µM in the experiment on NCI-H522 lung. For the same compound, the TGI in the experiment with SNB-75 CNS was above 100 µM; with SR leukemia, above 100 µM; with TK-10 renal, above 100 µM; in the experiment with UO-31 renal, 85.2 µM.
With `O=C1C(N=Nc2ccc(-c3nc4ccccc4[nH]3)cc2)NC(=S)N1c1ccccc1` (stereo not given), the TGI with COLO 205 colon, in the experiment on HCT-116 colon, in the experiment on HOP-92 NSCLC, with IGROV1 ovarian, with MDA-N and with NCI-H522 lung was above 100 µM each time. In addition, the TGI in the experiment with SNB-75 CNS was above 100 µM; with SR leukemia it was 15.3 µM; in the experiment with TK-10 renal, above 100 µM; in the experiment with UO-31 renal, above 100 µM.
Regarding `CCC(C)C1(O)OC2CC3(C)OC(=CC3=O)/C(C)=C\C3OC(=O)C1(C)C32` (stereo not given), the TGI with COLO 205 colon is 21 µM; in the experiment with HCT-116 colon it was 47.2 µM; in the experiment with HOP-92 NSCLC it was 31.3 µM; in the experiment on IGROV1 ovarian it was 53.5 µM; in the experiment on MDA-N, 21 µM; with NCI-H522 lung, 14.3 µM. Also, the TGI in the experiment on SNB-75 CNS was above 100 µM; with SR leukemia, 73.5 µM; in the experiment on TK-10 renal, 54.2 µM; with UO-31 renal, 47.4 µM.
`O=C(O)/C=C/C(=O)O`: the TGI with COLO 205 colon, with HCT-116 colon, in the experiment on HOP-92 NSCLC, in the experiment on IGROV1 ovarian, in the experiment on MDA-N and with NCI-H522 lung was above 100 µM each time. The TGI with SNB-75 CNS, in the experiment with SR leukemia, with TK-10 renal and in the experiment with UO-31 renal was above 100 µM in each case.
Regarding `O=c1[nH]c2ccccc2c2oc(-c3ccccc3)nc12`, the TGI in the experiment on COLO 205 colon was 37.6 µM; with HCT-116 colon it was 69.3 µM; in the experiment with HOP-92 NSCLC, 56.7 µM; in the experiment on IGROV1 ovarian, above 100 µM; in the experiment with MDA-N it was 46.6 µM; with NCI-H522 lung, above 100 µM. Further, the TGI is 45.8 µM in the experiment on SNB-75 CNS, 70.7 µM with SR leukemia, above 100 µM in the experiment with TK-10 renal and above 100 µM in the experiment on UO-31 renal.
As for `COc1ccc(C2=CN3CCC[C@H]3C=C2c2cc(O)c(OC)c(OC)c2)cc1OC`, the TGI was 0.0256 µM in the experiment on COLO 205 colon; 0.0108 µM in the experiment on HCT-116 colon; 0.0294 µM in the experiment with HOP-92 NSCLC; 0.3 µM and 0.0857 µM in the experiment with IGROV1 ovarian; 0.104 µM in the experiment on MDA-N; 0.026 µM in the experiment on NCI-H522 lung. Moreover, the TGI in the experiment on SNB-75 CNS is 0.00947 µM; in the experiment with SR leukemia, 0.0518 µM; in the experiment with TK-10 renal it was 0.153 µM; in the experiment with UO-31 renal it was 0.0905 µM and 0.0233 µM.
For the compound `O=C1O[C@]2(c3ccccc3)C(c3ccccc3)=C[C@]2(C(=O)c2ccccc2)C1=O`, the TGI with COLO 205 colon was above 100 µM; with HCT-116 colon it was above 100 µM; with HOP-92 NSCLC it was 64.8 µM; in the experiment on IGROV1 ovarian it was above 100 µM; in the experiment with MDA-N, above 100 µM; in the experiment with NCI-H522 lung it was 48.5 µM. For the same compound, the TGI in the experiment on SNB-75 CNS is above 100 µM; in the experiment on SR leukemia, 30.7 µM; with TK-10 renal, 73.5 µM; with UO-31 renal, 61.1 µM.
As to `CC(=N\N=C\c1ccccn1)/C(C)=N/N=C(C)/C(C)=N/N=C(C)/C(C)=N/N=C/c1ccccn1`, the TGI with COLO 205 colon, in the experiment on HCT-116 colon, in the experiment on HOP-92 NSCLC, in the experiment on IGROV1 ovarian, with MDA-N and in the experiment with NCI-H522 lung was above 100 µM each time. Besides, the TGI in the experiment on SNB-75 CNS, with SR leukemia, in the experiment on TK-10 renal and in the experiment on UO-31 renal was above 100 µM each time.
For `O=C(NN1C(=O)C=CC1=O)c1ccccc1Nc1ccccc1C(=O)NN1C(=O)C=CC1=O`, the TGI in the experiment on COLO 205 colon, in the experiment with HCT-116 colon, with HOP-92 NSCLC, in the experiment on IGROV1 ovarian, with MDA-N and in the experiment with NCI-H522 lung was above 100 µM in each case. Moreover, the TGI with SNB-75 CNS, in the experiment on SR leukemia, in the experiment on TK-10 renal and with UO-31 renal was above 100 µM throughout.
With `N#Cc1nc(/C=C/c2ccccc2)oc1N`, the TGI in the experiment with COLO 205 colon, with HCT-116 colon, with HOP-92 NSCLC, with IGROV1 ovarian, in the experiment with MDA-N and in the experiment on NCI-H522 lung was above 100 µM each time. Besides, the TGI in the experiment with SNB-75 CNS is above 100 µM; in the experiment on SR leukemia, 2.9 µM; in the experiment on TK-10 renal, above 100 µM; with UO-31 renal, above 100 µM.
For the compound `C#CCOC(=O)C(N)CCCN=C(N)N` (stereo not given), the TGI with COLO 205 colon, in the experiment on HCT-116 colon, in the experiment with HOP-92 NSCLC, in the experiment with IGROV1 ovarian, in the experiment on MDA-N and in the experiment with NCI-H522 lung was above 100 µM throughout. The TGI in the experiment with SNB-75 CNS, in the experiment with SR leukemia, in the experiment with TK-10 renal and in the experiment on UO-31 renal was above 100 µM each time.
Regarding `CCCCCCCCC/C=C1\CC(CO)(COC(=O)c2ccccc2)OC1=O` (stereo not given), the TGI in the experiment on COLO 205 colon amounted to 33 µM; in the experiment on HCT-116 colon, 52.8 µM; in the experiment on HOP-92 NSCLC it was 30.4 µM; in the experiment on IGROV1 ovarian it was 70.4 µM; in the experiment on MDA-N it was 43.1 µM; with NCI-H522 lung, 33.4 µM. Also, the TGI was 38.3 µM with SNB-75 CNS, above 100 µM in the experiment on SR leukemia, 44.4 µM with TK-10 renal and 32.8 µM with UO-31 renal.
With `Cc1cc(N=C2C=C(Nc3cc(C)on3)C(=O)c3ccccc32)no1`, the TGI with COLO 205 colon is above 88.3 µM; with HCT-116 colon it was above 100 µM; in the experiment on HOP-92 NSCLC it was 52.6 µM; with IGROV1 ovarian it was above 78.1 µM; with MDA-N, 4.02 µM; in the experiment with NCI-H522 lung, above 100 µM. For the same compound, the TGI in the experiment on SNB-75 CNS is above 87.8 µM; in the experiment on SR leukemia, above 100 µM; with TK-10 renal, above 100 µM; in the experiment on UO-31 renal it was above 100 µM.
`CCOC(=O)C(NCc1cccc(C(F)(F)F)c1)(NC(=O)c1ccccc1)C(F)(F)F` (stereo not given): the TGI with COLO 205 colon was 29.9 µM; in the experiment with HCT-116 colon, above 100 µM; in the experiment with HOP-92 NSCLC, 64.7 µM; with IGROV1 ovarian, 66.9 µM; with MDA-N, above 100 µM; with NCI-H522 lung, 50.4 µM. Besides, the TGI in the experiment on SNB-75 CNS is 93.3 µM; in the experiment with SR leukemia it was above 100 µM; in the experiment on TK-10 renal, above 100 µM; with UO-31 renal, 79.4 µM.
`OCC(O)C(O)C(O)C(/C=N\Nc1ncnc2ccc(Br)cc12)=N/Nc1ncnc2ccc(Br)cc12` (stereo not given): the TGI is above 100 µM in the experiment on COLO 205 colon; above 100 µM in the experiment with HCT-116 colon; above 100 µM with HOP-92 NSCLC; above 100 µM in the experiment on IGROV1 ovarian; above 100 µM in the experiment with MDA-N; 54.9 µM in the experiment on NCI-H522 lung. In addition, the TGI in the experiment with SNB-75 CNS, in the experiment on SR leukemia, with TK-10 renal and in the experiment with UO-31 renal was above 100 µM each time.
For `CC(C)C(C/C=C1\CC(CO)(COC(=O)CC(C(C)C)C(C)C)OC1=O)C(C)C` (stereo not given), the TGI in the experiment with COLO 205 colon worked out at 9.75 µM; in the experiment with HCT-116 colon, 27.8 µM; in the experiment on HOP-92 NSCLC it was 16.6 µM; in the experiment on IGROV1 ovarian, 28.1 µM; in the experiment on MDA-N it was 18 µM; in the experiment on NCI-H522 lung, 27.6 µM. The TGI stood at 22.9 µM in the experiment on SNB-75 CNS, 31.6 µM in the experiment on SR leukemia, 21.8 µM with TK-10 renal and 20 µM in the experiment on UO-31 renal.
Regarding `CC[C@@H]1CC[C@@H]2[C@H](CC[C@]3(C)[C@@H](OS(=O)(=O)c4ccc(C)cc4)CC[C@@H]23)[C@H]1CO`, the TGI with COLO 205 colon, in the experiment on HCT-116 colon, with HOP-92 NSCLC, in the experiment on IGROV1 ovarian, with MDA-N and with NCI-H522 lung was above 100 µM throughout. The TGI in the experiment with SNB-75 CNS was above 100 µM; with SR leukemia, above 100 µM; in the experiment with TK-10 renal it was above 100 µM; in the experiment on UO-31 renal, 52.5 µM.
Turning to `CCS(=O)(=O)c1c2cc(OC)ccc2nc2ccc(OC)cc12`, the TGI with COLO 205 colon, with HCT-116 colon, in the experiment on HOP-92 NSCLC, in the experiment on IGROV1 ovarian, in the experiment with MDA-N and in the experiment on NCI-H522 lung was above 100 µM in each case. The TGI with SNB-75 CNS, in the experiment on SR leukemia, in the experiment with TK-10 renal and in the experiment on UO-31 renal was above 100 µM throughout.
As to `CC(C)(C)c1cc(C2COC(=O)COCC(=O)OCCOCCOCCO2)cc(C(C)(C)C)c1O` (stereo not given), the TGI in the experiment with COLO 205 colon was above 100 µM; in the experiment on HCT-116 colon, above 100 µM; in the experiment with HOP-92 NSCLC it was 59.3 µM; in the experiment on IGROV1 ovarian, above 100 µM; with MDA-N, 38.5 µM; in the experiment on NCI-H522 lung, above 100 µM. Moreover, the TGI in the experiment with SNB-75 CNS is 37 µM; with SR leukemia, above 100 µM; in the experiment on TK-10 renal it was 43.7 µM; in the experiment on UO-31 renal it was 35.7 µM.
`COc1cc(C(SCc2ccccc2)SCc2ccccc2)ccc1O`: the TGI with COLO 205 colon, in the experiment on HCT-116 colon, in the experiment with HOP-92 NSCLC, in the experiment on IGROV1 ovarian, with MDA-N and with NCI-H522 lung was above 10 µM throughout. Also, the TGI in the experiment on SNB-75 CNS, in the experiment on SR leukemia, in the experiment on TK-10 renal and in the experiment with UO-31 renal was above 10 µM throughout.
Consider `O=C(O)c1ccc(Nc2nc3ccccc3nc2C(=O)O)cc1`, for which the TGI in the experiment on COLO 205 colon, with HCT-116 colon, with HOP-92 NSCLC, with IGROV1 ovarian, in the experiment on MDA-N and in the experiment on NCI-H522 lung was above 100 µM in each case. The TGI in the experiment on SNB-75 CNS, with SR leukemia, with TK-10 renal and with UO-31 renal was above 100 µM throughout.
